Test results as given in ChEMBL document CHEMBL1201862, “PubChem BioAssay data set” (2004).
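Test compounds were applied to cells in 96-well plates for 48 hours at 5 doses. GI50 marks 50% less growth.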 The source made the active and inactive calls. Cut-off read from the data, not from the text of the source: active = GI50 up to about 1.1 µM and inactive = higher.

Columns and labels:
Test in all cases: growth of human tumour cells (NCI), 48 h
[1] = system: 786-0
[2] = system: A498
[3] = system: A549
[4] = system: ACHN
[5] = system: CAKI-1
[6] = system: CCRF-CEM
[7] = system: COLO 205
[8] = system: DLD-1
[9] = system: DMS-114
[10] = system: DMS-273
[11] = system: EKVX
[12] = system: HCC 2998
[13] = system: HCT-116
[14] = system: HCT-15
[15] = system: HL-60
[16] = system: HOP-18
[17] = system: HOP-92
[18] = system: HT-29
[19] = system: IGROV-1
[20] = system: K562
[21] = system: KM-20L2
[22] = system: KM12
[23] = system: LOX IMVI
[24] = system: LXFL 529
[25] = system: M14
[26] = system: MOLT-4
[27] = system: Malme-3M
[28] = system: NCI-H226
[29] = system: NCI-H23
[30] = system: NCI-H460
[31] = system: NCI-H522
[32] = system: OVCAR-3
[33] = system: OVCAR-4
[34] = system: OVCAR-5
[35] = system: OVCAR-8
[36] = system: RPMI-8226
[37] = system: RXF 631
[38] = system: SF-268
[39] = system: SF-295
[40] = system: SF-539
[41] = system: SK-MEL-2
[42] = system: SK-MEL-5
[43] = system: SK-OV-3
[44] = system: SN12C
[45] = system: SNB-19
[46] = system: SNB-78
[47] = system: SW-620
[48] = system: TK-10
[49] = system: U-251
[50] = system: UACC-257
[51] = system: UACC-62
[52] = system: UO-31
[53] = system: XF498
[54] = system: HOP-62
[55] = system: M19-MEL
[56] = system: RXF 393
[57] = system: SK-MEL-28
[58] = system: SNB-75
[59] = system: SR

Measured: GI50

Cc1ccc(NC(=O)CCC(=O)C(C#N)c2ccccc2)cc1C (centres undefined)
inactive: [1] > 100 µM | [2] > 100 µM | [3] > 100 µM | [4] > 100 µM | [5] > 100 µM | [6] > 100 µM | [7] > 100 µM | [8] > 100 µM | [9] > 100 µM | [10] > 100 µM | [11] > 100 µM | [12] > 100 µM | [13] > 100 µM | [15] > 100 µM | [16] > 100 µM | [17] > 100 µM | [18] > 100 µM | [19] > 100 µM | [20] > 100 µM | [21] > 100 µM | [22] > 100 µM | [23] > 100 µM | [24] > 100 µM | [25] > 100 µM | [26] > 100 µM | [27] > 100 µM | [28] > 100 µM | [29] > 100 µM | [30] > 100 µM | [31] > 100 µM | [32] > 100 µM | [33] > 100 µM | [34] > 100 µM | [35] > 100 µM | [36] > 100 µM | [37] > 100 µM | [38] > 100 µM | [39] > 100 µM | [40] > 100 µM | [41] > 100 µM | [42] > 100 µM | [43] > 100 µM | [44] > 100 µM | [45] > 100 µM | [46] > 100 µM | [47] > 100 µM | [48] > 100 µM | [49] > 100 µM | [50] > 100 µM | [51] > 100 µM | [52] > 100 µM | [53] > 100 µM
> 100 µM: [14]

Nc1cn(C2OC(CC(c3ccccc3)(c3ccccc3)c3ccccc3)C(O)C2O)c(=O)[nH]c1=O (centres undefined)
inactive: [1] 21.4 µM | [2] 39.6 µM | [3] 23 µM | [4] > 100 µM | [5] 19.5 µM | [6] 23.3 µM | [7] 16.6 µM | [8] 24.5 µM | [9] 15.5 µM | [10] 33.3 µM | [11] 33.7 µM | [12] 27 µM | [13] 17.6 µM | [15] 17.3 µM | [16] 31.9 µM | [54] 23.4 µM | [17] 12.7 µM | [18] 23.2 µM | [19] 23.9 µM | [20] 23.4 µM | [21] 22 µM | [22] 31.3 µM | [23] 19.1 µM | [24] 31.8 µM | [25] 22.5 µM | [55] 18.4 µM | [26] 20.4 µM | [27] 23.5 µM | [28] 73.8 µM | [29] 23.5 µM | [30] 18.3 µM | [31] 19.2 µM | [32] 14.5 µM | [34] 21.2 µM | [35] 24.9 µM | [36] 18.7 µM | [56] 6.64 µM | [37] 43.9 µM | [38] 34.7 µM | [39] 30.1 µM | [57] 29.3 µM | [41] 28 µM | [42] 20.5 µM | [43] 34.7 µM | [44] 22.1 µM | [45] 26.8 µM | [58] > 100 µM | [46] 67.9 µM | [59] 18.7 µM | [47] 14.8 µM | [48] 26.4 µM | [49] 17.7 µM | [50] 22.9 µM | [51] 14.2 µM | [52] 31.6 µM | [53] 28.6 µM
17.8 µM: [14]

Cc1ccc(NC(=O)CCc2nnc(S)[nH]2)cc1
inactive: [1] > 100 µM | [2] > 100 µM | [3] > 100 µM | [4] > 100 µM | [5] > 100 µM | [6] > 100 µM | [7] > 100 µM | [8] > 100 µM | [9] 39.5 µM | [10] > 100 µM | [11] > 100 µM | [13] > 100 µM | [15] > 100 µM | [16] > 100 µM | [54] > 100 µM | [17] > 100 µM | [18] > 100 µM | [19] > 100 µM | [20] > 100 µM | [21] 54.8 µM | [22] > 100 µM | [24] > 100 µM | [25] > 100 µM | [55] > 100 µM | [26] > 100 µM | [27] > 100 µM | [28] > 100 µM | [29] > 100 µM | [30] > 100 µM | [31] > 100 µM | [32] > 100 µM | [33] > 100 µM | [34] > 100 µM | [35] > 100 µM | [36] > 100 µM | [37] > 100 µM | [38] > 100 µM | [39] > 100 µM | [40] > 100 µM | [57] > 100 µM | [41] > 100 µM | [42] > 100 µM | [43] > 100 µM | [44] > 100 µM | [45] > 100 µM | [58] 83.2 µM | [46] > 100 µM | [59] > 100 µM | [47] > 100 µM | [48] > 100 µM | [49] > 100 µM | [50] > 100 µM | [51] 17 µM | [52] > 100 µM | [53] > 100 µM
76 µM: [14]

O=C(CCN1CCN(c2cccc(Cl)c2)CC1)N1CCc2c([nH]c3ccccc23)C1c1cccnc1 (centres undefined)
inactive: [1] 4.89 µM | [3] 6.28 µM | [4] 4.78 µM | [5] 3.8 µM | [6] 5.56 µM | [7] 3.66 µM | [8] 5.32 µM | [9] 6.65 µM | [10] 8.28 µM | [11] 8.73 µM | [12] 1.91 µM | [13] 7.13 µM | [15] 2.54 µM | [16] 12.8 µM | [54] 9.1 µM | [17] 1.9 µM | [18] 3.56 µM | [19] 7.87 µM | [20] 2.78 µM | [21] 5.52 µM | [22] 3.05 µM | [23] 3.52 µM | [24] 4.19 µM | [25] 3.37 µM | [55] 13.3 µM | [26] 2.95 µM | [27] 7.71 µM | [28] 18.6 µM | [29] 7.89 µM | [30] 4.05 µM | [31] 4.19 µM | [32] 2.47 µM | [33] 2.58 µM | [34] 4.72 µM | [35] 6.55 µM | [36] 4.72 µM | [56] 7.4 µM | [37] 2.59 µM | [39] 4.72 µM | [40] 13.7 µM | [57] 11.9 µM | [41] 6.12 µM | [42] 6.25 µM | [43] 6.59 µM | [44] 6.62 µM | [45] 6.82 µM | [58] 9.68 µM | [46] 3.72 µM | [59] 1.75 µM | [47] > 10 µM | [48] 4.01 µM | [49] 7.08 µM | [50] 2.81 µM | [51] > 10 µM | [52] 2.98 µM | [53] 3.27 µM
3.4 µM: [14]
active: [2] 0.282 µM
